Measurements from the NIST ThermoML archive (doi:10.1016/j.jct.2012.09.012).

How the values were obtained:
[1] = molar heat capacity at constant pressure; settings: 101 kPa, Liquid, Small sample (50 mg) DSC
[2] = Liquid, Vibrating tube method
[3] = molar heat capacity at constant pressure; xn = mol fraction of the nth substance listed; settings: 101 kPa, Liquid, Small sample (50 mg) DSC, x2 = 0
[4] = xn = mol fraction of the nth substance listed; settings: Liquid, Vibrating tube method, x2 = 0

CC1=CC[C@H]2C[C@@H]1C2(C)C [(S)-2-pinene]
[1]
Settings	molar heat capacity at constant pressure [J/K/mol]
313.16 K	250.67
318.16 K	252.03
323.16 K	256.12
328.22 K	257.48
333.22 K	260.21
338.19 K	264.29
343.18 K	267.02
348.15 K	269.74
353.18 K	272.47
358.15 K	275.19
363.18 K	277.92
368.17 K	279.28
373.21 K	282
378.2 K	284.73
383.17 K	287.45
388.2 K	291.54
393.17 K	292.9
398.2 K	294.27
403.19 K	296.99
408.16 K	299.71
413.19 K	301.08
418.19 K	303.8

mass density [kg/m3], [2]
Settings	283.15 K	298.15 K	313.15 K	328.15 K	343.15 K	358.15 K
20000 kPa	880	868.8	858	846.7	835.9	825
25000 kPa	883.2	872.1	861.3	850.4	839.7	829.2
30000 kPa	886.3	875.3	864.7	854	843.8	833.3
35000 kPa	889.4	878.6	867.9	857.5	847.7	837.4
40000 kPa	892.5	881.9	871.3	861.1	851.4	841.5

C=C1CCC2CC1C2(C)C (stereo not drawn) [β-pinene]
[1]
Settings	molar heat capacity at constant pressure [J/K/mol]
313.16 K	249.31
318.16 K	252.03
323.16 K	254.76
328.22 K	257.48
333.22 K	260.21
338.19 K	262.93
343.18 K	265.66
348.15 K	268.38
353.18 K	271.11
358.15 K	273.83
363.18 K	277.92
368.17 K	280.64
373.21 K	283.37
378.2 K	284.73
383.17 K	287.45
388.2 K	290.18
393.17 K	292.9
398.2 K	295.63
403.19 K	299.71
408.16 K	302.44
413.19 K	303.8
418.19 K	306.53

mass density [kg/m3], [2]
Settings	283.15 K	298.15 K	313.15 K	328.15 K	343.15 K	358.15 K
20000 kPa	891.3	880.2	869.3	858.2	847.7	837
25000 kPa	894.2	883.3	872.6	861.7	851.4	840.9
30000 kPa	897	886.3	875.7	865.2	855	844.8
35000 kPa	899.9	889.3	878.8	868.7	858.6	848.7
40000 kPa	902.6	892.2	882	872.2	862.1	852.6

C=C1CCC2CC1C2(C)C (stereo not drawn) [β-pinene] + CC1=CC[C@H]2C[C@@H]1C2(C)C
[3]
Settings	molar heat capacity at constant pressure [J/K/mol]
313.16 K	249.31
318.16 K	252.03
323.16 K	254.76
328.22 K	257.48
333.22 K	260.21
338.19 K	262.93
343.18 K	265.66
348.15 K	268.38
353.18 K	271.11
358.15 K	273.83
363.18 K	277.92
368.17 K	280.64
373.21 K	283.37
378.2 K	284.73
383.17 K	287.45
388.2 K	290.18
393.17 K	292.9
398.2 K	295.63
403.19 K	299.71
408.16 K	302.44
413.19 K	303.8
418.19 K	306.53

mass density [kg/m3], [4]
Settings	283.15 K	298.15 K	313.15 K	328.15 K	343.15 K	358.15 K
20000 kPa	891.3	880.2	869.3	858.2	847.7	837
25000 kPa	894.2	883.3	872.6	861.7	851.4	840.9
30000 kPa	897	886.3	875.7	865.2	855	844.8
35000 kPa	899.9	889.3	878.8	868.7	858.6	848.7
40000 kPa	902.6	892.2	882	872.2	862.1	852.6
